Experimental findings from patent US12516053B2, “Bcl-2 inhibitors” (BEIGENE, LTD., priority 2019, dated 2026) are described below.

Test [1] addresses Recombinant human Bcl-2 protein (Homo sapiens, UniProt P10415). The test can be described thus: Bcl-2 TR-FRET assay. In kind it is binding. The settings on record: TR-FRET, 0.05 nM Bcl-2, FITC labeled Bak peptide 0.5 nM; read-out: Biochemical assay (IC50, nM) Bcl-2 WT. As to the method:
Compounds disclosed herein were tested for blocking of Bcl-2 protein with its ligand in an assay based on Time-Resolved Fluorescence Resonance Energy Transfer (TR-FRET) methodology. Recombinant human 0.05 nM Bcl-2 protein was pre-incubated with a serial dilution of compounds disclosed herein (top final concentration is 1 uM or 0.1 uM or 0.02 uM or 0.01 uM, 10 points) at room temperature for 0.5 hour in an assay buffer containing 20 mM potassium phosphate buffer, pH 7.5, 50 mM NaCl, 1 mM EDTA, 0.05% Tween-20, 0.01% BSA. […] The inhibition percentage of Bcl-2 interaction with its ligand in presence of increasing concentrations of compounds was calculated based on the TR-FRET signals. The IC50 for each compound was derived from fitting the data to the four-parameter logistic equation by Graphpad Prism software or Dotmatics.

Test [2] has as its target recombinant human Bcl-2-G101V protein (Homo sapiens, UniProt P10415, G101V). The test can be described thus: Bcl-2-G101V TR-FRET assay. In kind it is binding. The settings on record: TR-FRET, 0.1 nM Bcl-2-G101V, FITC labeled Bak peptide 5 nM; read-out: Biochemical assay (IC50, nM) Bcl-2 G101V. The source says: The IC50 for each compound was derived from fitting the data to the four-parameter logistic equation by Graphpad Prism software or Dotmatics.
(TR-FRET usually uses a lanthanide donor and a delayed reading to cut background.)

For test [3], the system named is RS4;11 (BCL-2 dependent acute lymphoblastic leukemia cell line). The test can be described thus: RS4;11 cell proliferation assay. The settings on record: CellTiter-GLO, read-out: Cellular proliferation assay (IC50, nM) RS4. Type of test: cell-based. As to the method:
RS4;11 Cell Proliferation Assay:
Each compound was serially diluted with 1 μM as the maximum concentration. To test the apoptotic effect of the compounds, the cells were seeded at 50,000 in 180 μl per well in 96-well plates and treated with 10-point dilution series of each compound for 48 hrs at 37° C. Cell viability was assessed after the treatment using CellTiter-GLO luminescent assay (Promega) according to the manufacturer's recommendations. Briefly, 30 μl of CellTiter-GLO reagent was added into 200 μl of cell culture, Mixture was agitated on an orbital shaker for 5 mins to ensure cell lysis followed by 7 mins incubation at room temperature to allow development and stabilization of luminescent signals, which corresponded to quantity of ATP and thus the quantity of metabolically active cells. Luminescent signals were measured using PHERAstar FS reader (BMG). Mean IC50 values for cell viability were determined with GraphPad Prism software.
For orientation: ATP-based viability assays read luminescence as a measure of living cells.

Another test deals with BA/F3-BCL-2 cells (Homo sapiens, UniProt P10415). Kind of test: BA/F3 cell proliferation assay, BCL-2 wild type. Type of test: cell-based, Murine. The settings on record: 24 hrs treatment, 3% FBS, CellTiter-Glo, geometric mean of 3 experiments; read-out: Cellular proliferation assay (IC50, nM) Bcl-2 WT; BaF3 cell. The procedure:
(§1) BA/F3 cell Proliferation Assay:
(§2) The cells were treated with a 10-point dilution series of compounds for 24 hrs. After the compound treatment, 30 μl of CellTiter-Glo reagent was added in each well. The effects on proliferation were determined using Cell TiterGlo reagent (Promega) according to the manufacturer's instructions. Luminescent signals were measured using PHERAstar FS plate reader (BMG Labtech). ICS50 values for cell viability were determined with GraphPad Prism software and were the geometric mean of 3 independent experiments.

A further test addresses BA/F3-BCL-2 G101V cells (Homo sapiens, UniProt P10415, G101V, cells depend on it). The test can be described thus: BA/F3 cell proliferation assay, Bcl-2 G101V. Type of test: cell-based, Murine. The settings on record: 24 hrs treatment, 3% FBS, CellTiter-Glo, geometric mean of 3 experiments; read-out: Cellular proliferation assay (IC50, nM) Bcl-2 G101V; BaF3 cell. The procedure:
as §1, §2

The mark [4] stands for this setting: Homo sapiens, RS4-11, 48 hrs treatment.

Where two headings read alike, the source gives them in different places.

As for `CC(C)c1ccccc1[C@@H]1CCCN1C1CC2(CCN(c3ccc(C(=O)NS(=O)(=O)c4cc5c(c([N+](=O)[O-])c4)N[C@H](CC4CCC(O)CC4)CO5)c(N4C[C@H](C)Oc5nc6[nH]ccc6cc54)c3)CC2)C1` (stereo partly drawn) [Example B8, N—(((R)-3-(((1r,4R)-4-hydroxycyclohexyl)methyl)-5-nitro-3,4-dihydro-2H-benzo[b][1,4]oxazin-7-yl)sulfonyl)-4-(2-((S)-2-(2-isopropylphenyl)pyrrolidin-1-yl)-7-azaspiro[3,5]nonan-7-yl)-2-((S)-3-methyl-2,3-dihydropyrrolo[3′,2′:5,6]pyrido[2,3-b][1,4]oxazin-1(6H)-yl)benzamide], the IC50 in test [1] is 0.055 nM; in test [2], 3.3 nM; in test [3] (48 hrs treatment) it was 0.7 nM; on BA/F3-BCL-2 cells it was 0.65 nM. Moreover, on BA/F3-BCL-2 G101V cells, the GI50 turned out to be 41.2 nM.

With `CC(C)c1ccccc1[C@@H]1CCCN1C1CC2(CCN(c3ccc(C(=O)NS(=O)(=O)c4cc5c(c([N+](=O)[O-])c4)N[C@H](C[C@H]4CC[C@H](O)CC4)CO5)c(N4CCCOc5nc6[nH]ccc6cc54)c3)CC2)C1` [Example B9, 2-(3,4-dihydro-2H-pyrrolo[3′,2′:5,6]pyrido[2,3-b][1,4]oxazepin-1(7H)-yl)-N—(((R)-3-(((1R,4R)-4-hydroxycyclohexyl)methyl)-5-nitro-3,4-dihydro-2H-benzo[b][1,4]oxazin-7-yl)sulfonyl)-4-(2-((S)-2-(2-isopropylphenyl)pyrrolidin-1-yl)-7-azaspiro[3,5]nonan-7-yl)benzamide], the IC50 was 0.038 nM in test [1], 3.3 nM in test [2], 0.5 nM in test [3] (setting [4]) and 0.83 nM at BA/F3-BCL-2 cells. In addition, on BA/F3-BCL-2 G101V cells, the GI50 was found to be 34.9 nM.

Regarding `CC(C)c1ccccc1[C@@H]1CCCN1C1CC2(CCN(c3ccc(C(=O)NS(=O)(=O)c4ccc(NC[C@H]5CC[C@](C)(O)CC5)c([N+](=O)[O-])c4)c(N4C[C@H](C)Oc5nc6[nH]ccc6cc54)c3)CC2)C1` [Example B6, N-((4-((((1r,4r)-4-hydroxy-4-methylcyclohexyl)methyl)amino)-3-nitrophenyl)sulfonyl)-4-(2-((S)-2-(2-isopropylphenyl)pyrrolidin-1-yl)-7-azaspiro[3,5]nonan-7-yl)-2-((S)-3-methyl-2,3-dihydropyrrolo[3′,2′:5,6]pyrido[2,3-b][1,4]oxazin-1(6H)-yl)benzamide], the IC50 turned out to be 0.027 nM in test [1], 1.2 nM in test [2], 0.34 nM in test [3] (setting [4]) and 1.1 nM at BA/F3-BCL-2 cells. The GI50 at BA/F3-BCL-2 G101V cells came to 31.9 nM.

Take `CC(C)c1ccccc1[C@@H]1CCCN1C1CC2(CCN(c3ccc(C(=O)NS(=O)(=O)c4cc5c(c([N+](=O)[O-])c4)N[C@H](C[C@H]4CC[C@H](O)CC4)CO5)c(N4C[C@@H](C)Oc5nc6[nH]ccc6cc54)c3)CC2)C1` [Example B7, N—(((R)-3-(((1r,4R)-4-hydroxycyclohexyl)methyl)-5-nitro-3,4-dihydro-2H-benzo[b][1,4]oxazin-7-yl)sulfonyl)-4-(2-((S)-2-(2-isopropylphenyl)pyrrolidin-1-yl)-7-azaspiro[3,5]nonan-7-yl)-2-((R)-3-methyl-2,3-dihydropyrrolo[3′,2′:5,6]pyrido[2,3-b][1,4]oxazin-1(6H)-yl)benzamide]: the IC50 in test [1] was 0.048 nM; in test [2], 1.5 nM; in test [3] (setting [4]) it was 0.8 nM; on BA/F3-BCL-2 cells, 0.18 nM. For the same compound, the GI50 at BA/F3-BCL-2 G101V cells is 11.2 nM.

With `CC(C)c1ccccc1[C@@H]1CCCN1C1CC2(CCN(c3ccc(C(=O)NS(=O)(=O)c4ccc(NC[C@H]5CC[C@](C)(O)CC5)c([N+](=O)[O-])c4)c(N4C[C@@H](C)Oc5nc6[nH]ccc6cc54)c3)CC2)C1` [Example B5, N-((4-((((1r,4r)-4-hydroxy-4-methylcyclohexyl)methyl)amino)-3-nitrophenyl)sulfonyl)-4-(2-((S)-2-(2-isopropylphenyl)pyrrolidin-1-yl)-7-azaspiro[3,5]nonan-7-yl)-2-((R)-3-methyl-2,3-dihydropyrrolo[3′,2′:5,6]pyrido[2,3-b][1,4]oxazin-1(6H)-yl)benzamide], the IC50 stood at 0.025 nM in test [1], 1.1 nM in test [2], 1 nM in test [3] (setting [4]) and 0.13 nM at BA/F3-BCL-2 cells. Also, the GI50 at BA/F3-BCL-2 G101V cells amounted to 8.9 nM.
